Molecules are shown by their SMILES. Activity calls are given as the source filed them. No stated cut-off is given here; in the data, actives have a measured IC50 and inactives only a lower limit.

In the assay the target is Envelope glycoprotein gp160 (Human immunodeficiency virus 1, UniProt Q6QLK5). Nature of the assay: cell-free HIV fusion peptide-binding blockers – biochemical, uHTS, fluorescence dequenching, […] (AID 1986).
Sequence of Envelope glycoprotein gp160 (Q6QLK5 whole entry, the tested form may be a part): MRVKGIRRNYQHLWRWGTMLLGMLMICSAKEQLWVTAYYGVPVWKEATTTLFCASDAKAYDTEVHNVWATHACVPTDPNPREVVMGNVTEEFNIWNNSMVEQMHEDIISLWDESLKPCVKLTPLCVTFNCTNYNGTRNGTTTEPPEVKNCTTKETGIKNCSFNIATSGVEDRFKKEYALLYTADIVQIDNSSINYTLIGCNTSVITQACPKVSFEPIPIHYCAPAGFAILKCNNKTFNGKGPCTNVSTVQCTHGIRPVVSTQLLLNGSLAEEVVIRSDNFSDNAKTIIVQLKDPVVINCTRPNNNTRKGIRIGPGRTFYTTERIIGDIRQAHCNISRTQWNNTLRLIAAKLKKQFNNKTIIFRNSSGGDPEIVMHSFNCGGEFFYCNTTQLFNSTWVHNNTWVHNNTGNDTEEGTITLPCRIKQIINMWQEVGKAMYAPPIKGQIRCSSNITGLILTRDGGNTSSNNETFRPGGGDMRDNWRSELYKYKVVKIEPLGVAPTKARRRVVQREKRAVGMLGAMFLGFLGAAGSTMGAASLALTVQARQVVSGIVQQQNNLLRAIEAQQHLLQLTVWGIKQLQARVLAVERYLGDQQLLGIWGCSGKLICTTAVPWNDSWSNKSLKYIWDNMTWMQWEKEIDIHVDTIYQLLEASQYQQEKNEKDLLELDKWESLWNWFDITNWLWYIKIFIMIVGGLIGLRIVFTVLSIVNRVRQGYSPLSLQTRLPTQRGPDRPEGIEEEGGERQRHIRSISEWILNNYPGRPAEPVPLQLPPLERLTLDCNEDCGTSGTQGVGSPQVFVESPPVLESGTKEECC
As a reminder, the IC50 is the concentration at which inhibition is half-maximal. In the case of `Cc1ccc(NC(S)=NNc2ccc([N+](=O)[O-])cc2S(=O)(=O)Nc2ccccc2C(=O)O)cc1C`, the IC50 was 7.4 µM (active).
In the case of `CC(C)CS(=O)(=O)C1=NN2C(=N)/C(=C\c3ccc(OC(=O)c4ccco4)cc3)C(=O)N=C2S1`, the IC50 is 12.8 µM (active).
Regarding `N#C/C(=C\c1ccc(O)c([N+](=O)[O-])c1)c1nc2ccccc2s1`, the IC50 was 25.2 µM (active).
Take `O=C(O)/C(CC(=O)c1ccc(Cl)cc1)=N/Nc1ccc([N+](=O)[O-])cc1[N+](=O)[O-]`: the IC50 is 20.8 µM (active).

Values taken from ChEMBL document CHEMBL1201862, “PubChem BioAssay data set” (2004).
